Assay results from patent publication US8247211B2, “Glycopeptide antibiotics” (American Cyanamid Company, priority 2001, dated 2012).
In brackets after ≈: the same amount, converted by molar mass.

Assays:
Assay in all cases: In vitro antibacterial evaluation: minimum inhibitory concentration (MIC), broth dilution method
Assay type in all cases: cell-based
Staphylococcus sp. = conditions: 18 hours at 35° C.
Outline: (§1)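 NCCLS M7-A2 broth dilution with Mueller-Hinton II, testing 64-0.06 μg/mL antibiotic against 5×10^5 CFU/mL inocula. Test strains include recent methicillin-, penicillin- or vancomycin-resistant clinical isolates. MIC is the lowest concentration preventing growth.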

Escherichia coli = system: Escherichia coli
Outline: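 NCCLS M7-A2 broth dilution; Muller-Hinton II […]; 5×10^5 CFU/mL; 64-0.06 μg/mL. MIC = lowest concentration with no growth.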

Enterococcus sp. = system: Enterococcus sp.
Outline: as §1

Streptococcus sp. = system: Streptococcus sp.
Outline: as §1

[1] = broth dilution, inoculum 5×10^5 CFU/mL, 18 hours at 35° C.

## CC(c1ccccc1)C1NC(=O)CNC(=O)C(CO)NC(=O)C(C(O)C2CNC(=N)N2C2OC(CO)C(O)C(O)C2O)NC(=O)C(C(O)C2CNC(=N)N2)NC(=O)C(Cc2ccc(OC3OC(CO)C(OC4OC(CO)C(O)C(OCc5ccc(OCc6ccccc6)cc5)C4O)C(O)C3O)cc2)NC1=O (stereo not shown) [Example 231c]
Staphylococcus sp.; Coagulase Negative Staphylococcus (GC 4547)
  MIC Coagulase Negative Staphylococcus (GC 4547): 2 µg/mL (≈ 1.34 µM)
Staphylococcus sp.; Coagulase Negative Staphylococcus (GC 4548)
  MIC Coagulase Negative Staphylococcus (GC 4548): 0.5 µg/mL (≈ 0.335 µM)
Staphylococcus sp.; Coagulase Negative Staphylococcus (GC 4549)
  MIC Coagulase Negative Staphylococcus (GC 4549): 0.5 µg/mL (≈ 0.335 µM)
Staphylococcus sp.; Coagulase Negative Staphylococcus (GC 4551)
  MIC Coagulase Negative Staphylococcus (GC 4551): 1 µg/mL (≈ 0.67 µM)
Staphylococcus sp.; Coagulase Negative Staphylococcus (GC 6257)
  MIC Coagulase Negative Staphylococcus (GC 6257): 0.5 µg/mL (≈ 0.335 µM)
Staphylococcus sp.; Staphylococcus aureus (ATCC 29213)
  MIC Staphylococcus aureus (ATCC 29213): 1 µg/mL (≈ 0.67 µM)
Staphylococcus sp.; Staphylococcus aureus (GC 1131)
  MIC Staphylococcus aureus (GC 1131): 2 µg/mL (≈ 1.34 µM)
Staphylococcus sp.; Staphylococcus aureus (GC 3051)
  MIC Staphylococcus aureus (GC 3051): 2 µg/mL (≈ 1.34 µM)
Staphylococcus sp.; Staphylococcus aureus (GC 3053)
  MIC Staphylococcus aureus (GC 3053): 2 µg/mL (≈ 1.34 µM)
Staphylococcus sp.; Staphylococcus aureus (GC 4541)
  MIC Staphylococcus aureus (GC 4541): 2 µg/mL (≈ 1.34 µM)
Staphylococcus sp.; Staphylococcus aureus (GC 4542)
  MIC Staphylococcus aureus (GC 4542): 2 µg/mL (≈ 1.34 µM)
Staphylococcus sp.; Staphylococcus aureus (GC 4544)
  MIC Staphylococcus aureus (GC 4544): 2 µg/mL (≈ 1.34 µM)
Staphylococcus sp.; Staphylococcus aureus (GC 4545)
  MIC Staphylococcus aureus (GC 4545): 2 µg/mL (≈ 1.34 µM)
Staphylococcus sp.; Staphylococcus aureus-SMITH (GC 4543)
  MIC Staphylococcus aureus-SMITH (GC 4543): 1 µg/mL (≈ 0.67 µM)
Staphylococcus sp.; Staphylococcus haemolyticus (GC 4546)
  MIC Staphylococcus haemolyticus (GC 4546): 1 µg/mL (≈ 0.67 µM)
Escherichia coli; Escherichia coli (GC 4560), 18 hours at 35° C.
  MIC Escherichia coli (GC 4560): 2 µg/mL (≈ 1.34 µM)
Enterococcus sp.; Enterococcus avium (GC 4558), 18 hours at 35° C.
  MIC Enterococcus avium (GC 4558): 4 µg/mL (≈ 2.68 µM)
Enterococcus sp.; Enterococcus faecalis (ATCC 29212), 18 hours at 35° C.
  MIC Enterococcus faecalis (ATCC 29212): 4 µg/mL (≈ 2.68 µM)
Enterococcus sp.; Enterococcus faecalis (GC 2242), 18 hours at 35° C.
  MIC Enterococcus faecalis (GC 2242): 4 µg/mL (≈ 2.68 µM)
Enterococcus sp.; Enterococcus faecalis (GC 2691), 18 hours at 35° C.
  MIC Enterococcus faecalis (GC 2691): 8 µg/mL (≈ 5.36 µM)
Enterococcus sp.; Enterococcus faecalis (GC 3059), 18 hours at 35° C.
  MIC Enterococcus faecalis (GC 3059): 4 µg/mL (≈ 2.68 µM)
Enterococcus sp.; Enterococcus faecalis (GC 4552), 18 hours at 35° C.
  MIC Enterococcus faecalis (GC 4552): 4 µg/mL (≈ 2.68 µM)
Enterococcus sp.; Enterococcus faecalis (GC 4553), 18 hours at 35° C.
  MIC Enterococcus faecalis (GC 4553): 4 µg/mL (≈ 2.68 µM)
Enterococcus sp.; Enterococcus faecalis (GC 4554), 18 hours at 35° C.
  MIC Enterococcus faecalis (GC 4554): 4 µg/mL (≈ 2.68 µM)
Enterococcus sp.; Enterococcus faecalis (GC 6189), 18 hours at 35° C.
  MIC Enterococcus faecalis (GC 6189): 4 µg/mL (≈ 2.68 µM)
Enterococcus sp.; Enterococcus faecium (GC 2243), 18 hours at 35° C.
  MIC Enterococcus faecium (GC 2243): 4 µg/mL (≈ 2.68 µM)
Enterococcus sp.; Enterococcus faecium (GC 4556), 18 hours at 35° C.
  MIC Enterococcus faecium (GC 4556): 4 µg/mL (≈ 2.68 µM)
Enterococcus sp.; Enterococcus faecium (GC 4557), 18 hours at 35° C.
  MIC Enterococcus faecium (GC 4557): 4 µg/mL (≈ 2.68 µM)
Enterococcus sp.; [1]
  MIC Enterococcus avium (GC 4558): 4 µg/mL (≈ 2.68 µM)
  MIC Enterococcus faecalis (ATCC 29212): 4 µg/mL (≈ 2.68 µM)
  MIC Enterococcus faecalis (GC 2242): 4 µg/mL (≈ 2.68 µM)
  MIC Enterococcus faecalis (GC 2691): 8 µg/mL (≈ 5.36 µM)
  MIC Enterococcus faecalis (GC 3059): 4 µg/mL (≈ 2.68 µM)
  MIC Enterococcus faecalis (GC 4552): 4 µg/mL (≈ 2.68 µM)
  MIC Enterococcus faecalis (GC 4553): 4 µg/mL (≈ 2.68 µM)
  MIC Enterococcus faecalis (GC 4554): 4 µg/mL (≈ 2.68 µM)
  MIC Enterococcus faecalis (GC 6189): 4 µg/mL (≈ 2.68 µM)
  MIC Enterococcus faecium (GC 2243): 4 µg/mL (≈ 2.68 µM)
  MIC Enterococcus faecium (GC 4556): 4 µg/mL (≈ 2.68 µM)
  MIC Enterococcus faecium (GC 4557): 4 µg/mL (≈ 2.68 µM)
Streptococcus sp.; Streptococcus agalactiae (GC 4564), 18 hours at 35° C.
  MIC Streptococcus agalactiae (GC 4564): <0.12 µg/mL
Streptococcus sp.; Streptococcus pneumoniae (ATCC 6301), 18 hours at 35° C.
  MIC Streptococcus pneumoniae (ATCC 6301): <0.12 µg/mL
Streptococcus sp.; Streptococcus pneumoniae (GC 1894), 18 hours at 35° C.
  MIC Streptococcus pneumoniae (GC 1894): <0.12 µg/mL
Streptococcus sp.; Streptococcus pneumoniae (GC 4565), 18 hours at 35° C.
  MIC Streptococcus pneumoniae (GC 4565): <0.12 µg/mL
Streptococcus sp.; Streptococcus pyogenes (GC 4563), 18 hours at 35° C.
  MIC Streptococcus pyogenes (GC 4563): <0.12 µg/mL
Streptococcus sp.; [1]
  MIC Streptococcus agalactiae (GC 4564): <0.12 µg/mL
  MIC Streptococcus pneumoniae (ATCC 6301): <0.12 µg/mL
  MIC Streptococcus pneumoniae (GC 1894): <0.12 µg/mL
  MIC Streptococcus pneumoniae (GC 4565): <0.12 µg/mL
  MIC Streptococcus pyogenes (GC 4563): <0.12 µg/mL

## CC(C)=CCCC(C)=CCN=C1NCC(C(O)C2NC(=O)C(C(O)C3CNC(=N)N3)NC(=O)C(Cc3ccc(OC4OC(CO)C(OC5OC6COC7(OC6C(O)C5O)C5CC6CC(C5)CC7C6)C(O)C4O)cc3)NC(=O)C(C(C)c3ccccc3)NC(=O)CNC(=O)C(CO)NC2=O)N1C1OC(CO)C(O)C(O)C1O (stereo not drawn) [Example 82, Cyclo[glycyl-β-methylphenylalanyl-O-[4-O-[4,6-O-(2-adamantylidene)hexopyranosyl]hexopyranosyl]tyrosyl-3-(2-iminoimidazolidin-4-yl)seryl-3-[1-[(3,7-dimethylocta-2,6-dien-1-yl)-imino]-3-hexopyranosylimidazolidin-4-yl]serylseryl]]
Staphylococcus sp.; broth dilution
  MIC Coagulase Negative Staphylococcus (GC 4547): 4 µg/mL (≈ 2.56 µM)
  MIC Coagulase Negative Staphylococcus (GC 4548): 4 µg/mL (≈ 2.56 µM)
  MIC Coagulase Negative Staphylococcus (GC 4549): 4 µg/mL (≈ 2.56 µM)
  MIC Coagulase Negative Staphylococcus (GC 4551): 8 µg/mL (≈ 5.12 µM)
  MIC Staphylococcus aureus (ATCC 29213): 8 µg/mL (≈ 5.12 µM)
  MIC Staphylococcus aureus (GC 1131): 16 µg/mL (≈ 10.2 µM)
  MIC Staphylococcus aureus (GC 3051): 8 µg/mL (≈ 5.12 µM)
  MIC Staphylococcus aureus (GC 3053): 16 µg/mL (≈ 10.2 µM)
  MIC Staphylococcus aureus (GC 4541): 8 µg/mL (≈ 5.12 µM)
  MIC Staphylococcus aureus (GC 4542): 16 µg/mL (≈ 10.2 µM)
  MIC Staphylococcus aureus (GC 4544): 16 µg/mL (≈ 10.2 µM)
  MIC Staphylococcus aureus (GC 4545): 8 µg/mL (≈ 5.12 µM)
  MIC Staphylococcus aureus SMITH (GC 4543): 8 µg/mL (≈ 5.12 µM)
  MIC Staphylococcus haemolyticus (GC 4546): 4 µg/mL (≈ 2.56 µM)
Staphylococcus sp.; strain SMITH GC 4543, broth dilution
  MIC Staphylococcus aureus-SMITH (GC 4543): 8 µg/mL (≈ 5.12 µM)
Escherichia coli; strain GC 4560
  MIC Escherichia coli (GC 4560): 4 µg/mL (≈ 2.56 µM)
Enterococcus sp.; Enterococcus faecalis (GC 2242), broth dilution, 18 hours at 35° C.
  MIC Enterococcus faecalis (GC 2242): 16 µg/mL (≈ 10.2 µM)
Enterococcus sp.; Enterococcus faecalis (GC 2691), broth dilution, 18 hours at 35° C.
  MIC Enterococcus faecalis (GC 2691): 16 µg/mL (≈ 10.2 µM)
Enterococcus sp.; Enterococcus faecalis (GC 3059), broth dilution, 18 hours at 35° C.
  MIC Enterococcus faecalis (GC 3059): 16 µg/mL (≈ 10.2 µM)
Enterococcus sp.; strain ATCC 29212
  MIC Enterococcus faecalis (ATCC 29212): 16 µg/mL (≈ 10.2 µM)
Enterococcus sp.; strain GC 2242
  MIC Enterococcus faecalis (GC 2242): 16 µg/mL (≈ 10.2 µM)
Enterococcus sp.; strain GC 2243
  MIC Enterococcus faecium (GC 2243): 8 µg/mL (≈ 5.12 µM)
Enterococcus sp.; strain GC 2691
  MIC Enterococcus faecalis (GC 2691): 16 µg/mL (≈ 10.2 µM)
Enterococcus sp.; strain GC 3059
  MIC Enterococcus faecalis (GC 3059): 16 µg/mL (≈ 10.2 µM)
Enterococcus sp.; strain GC 4552
  MIC Enterococcus faecalis (GC 4552): 16 µg/mL (≈ 10.2 µM)
Enterococcus sp.; strain GC 4553
  MIC Enterococcus faecalis (GC 4553): 8 µg/mL (≈ 5.12 µM)
Enterococcus sp.; strain GC 4554
  MIC Enterococcus faecalis (GC 4554): 32 µg/mL (≈ 20.5 µM)
Enterococcus sp.; strain GC 4556
  MIC Enterococcus faecium (GC 4556): 16 µg/mL (≈ 10.2 µM)
Enterococcus sp.; strain GC 4557
  MIC Enterococcus faecium (GC 4557): 2 µg/mL (≈ 1.28 µM)
Enterococcus sp.; strain GC 4558
  MIC Enterococcus avium (GC 4558): 4 µg/mL (≈ 2.56 µM)
Enterococcus sp.; strain GC 6189
  MIC Enterococcus faecalis (GC 6189): 16 µg/mL (≈ 10.2 µM)
Streptococcus sp.; Streptococcus agalactiae (GC 4564), broth dilution, 18 hours at 35° C.
  MIC Streptococcus agalactiae (GC 4564): 0.5 µg/mL (≈ 0.32 µM)
Streptococcus sp.; Streptococcus pneumoniae (ATCC 6301), broth dilution, 18 hours at 35° C.
  MIC Streptococcus pneumoniae (ATCC 6301): 2 µg/mL (≈ 1.28 µM)
Streptococcus sp.; Streptococcus pneumoniae (GC 1894), broth dilution, 18 hours at 35° C.
  MIC Streptococcus pneumoniae (GC 1894): 0.25 µg/mL (≈ 0.16 µM)
Streptococcus sp.; Streptococcus pneumoniae (GC 4565), broth dilution, 18 hours at 35° C.
  MIC Streptococcus pneumoniae (GC 4565): 2 µg/mL (≈ 1.28 µM)
Streptococcus sp.; Streptococcus pyogenes (GC 4563), broth dilution, 18 hours at 35° C.
  MIC Streptococcus pyogenes (GC 4563): 1 µg/mL (≈ 0.64 µM)
Streptococcus sp.; strain ATCC 6301
  MIC Streptococcus pneumoniae (ATCC 6301): 2 µg/mL (≈ 1.28 µM)
Streptococcus sp.; strain GC 1894
  MIC Streptococcus pneumoniae (GC 1894): 0.25 µg/mL (≈ 0.16 µM)
Streptococcus sp.; strain GC 4563
  MIC Streptococcus pyogenes (GC 4563): 1 µg/mL (≈ 0.64 µM)
Streptococcus sp.; strain GC 4564
  MIC Streptococcus agalactiae (GC 4564): 0.5 µg/mL (≈ 0.32 µM)
Streptococcus sp.; strain GC 4565
  MIC Streptococcus pneumoniae (GC 4565): 2 µg/mL (≈ 1.28 µM)
